{"source": "patent US20190209528A1", "about": "“MEDICINAL DRUG, METHOD, USE, AND COMPOUND FOR PREVENTING OR CURING LEUKEMIA ASSOCIATED WITH MLL” (FUJIFILM Corporation, priority 2016, published 2019)", "key": {"[1]": {"system": "MLL fusion gene (MLL-AF9) leukemia cells", "experiment": "Mouse acute myelogenous leukemia model with MLL fusion gene (MLL-AF9) introduced (Test Example 1)", "type": "in vivo", "experimental": "(§1) Hereinafter, Test examples 1 and 2 will be described. Test Example 1 and 2 were carried out with reference to J Clin Invest., 2013 Sep. 3, 123(9): 3876 to 3888; and Blood, 1 Sep. 2011, Volume 118, 2541 to 2550.\nA mouse acute myelogenous leukemia (AML) model into which the MLL fusion gene (MLL-AF9) inducing cancer was introduced, was prepared. Specifically, bone marrow cells were collected from a C57BL/6-Ly5.1 mouse (Sankyo Labo Service Corporation, INC., hereinafter the same applies), and hematopoietic stem precursor cells were isolated using CD117 MicroBeads. MLL-AF9 marked with GFP (green fluorescent protein) was introduced into these cells using a virus. This MLL-AF9-introduced cells were transplanted to the same strain (C57BL/6) mouse (Japan SLC, Inc., hereinafter the same applies), and GFP-positive leukemia cells were collected from the mouse spleens that developed leukemia. These cells were subjected to second, third, and fourth transplantations, and after the fourth transplantation, MLL fusion gene (MLL-AF9) leukemia cells causing all the mice to develop leukemia in about 2 weeks were collected.\nThese MLL fusion gene (MLL-AF9) leukemia cells 1×10^6/mouse were injected into the C57BL/6 mouse from the tail vein. On day 4 after the day of injection, 0.5% methylcellulose suspension of 5-hydroxy-1H-imidazole-4-carboxamide-3/4 hydrate (medicine) was administered orally to the mouse once per day at 160 mg/kg (in terms of free base) on Monday (day 4), Wednesday (day 6), and Friday (day 8), and this administration was continued during the survival period of the mouse."}, "[2]": {"system": "p53-deleted MLL fusion gene (MLL-AF9) leukemia cells", "experiment": "Mouse acute myelogenous leukemia model, MLL-AF9 leukemia cells with the p53 gene deleted (Test Example 2)", "type": "in vivo", "experimental": "as §1\nIn the case where the survival period was extended depending on the function of a p53 gene, there is a concern that clinical usefulness may be limited. For this reason, the MLL fusion gene (MLL-AF9) leukemia cells were prepared in the same manner as in Test Example 1 by using mice in which the p53 gene was deleted."}, "[3]": {"system": "leukemia associated with MLL (MLL-ENL)", "settings": "FIG. 3 and FIG. 5 of Genes & development, Vol. 23, pp. 877 to 889, 2009; cited from earlier work"}}, "data": [{"smiles": "NC(=O)c1nc[nH]c1O", "note": "[5-hydroxy-1H-imidazole-4-carboxamide-3/4 hydrate]", "values": [{"measurement": "longest survival in medicine-administered group (FIG. 1)", "setting": "[1]; 160 mg/kg orally Mon/Wed/Fri from day 4", "value": "up to 40 days"}, {"measurement": "survival period of medicine-administered group (FIG. 1)", "setting": "[1]; 160 mg/kg orally Mon/Wed/Fri from day 4, control mice all died in about 20 days", "value": "≥ 30", "unit": "days"}, {"measurement": "survival period versus non-administered group", "setting": "[1]; C57BL/6 mouse, 1x10^6 MLL-AF9 leukemia cells via tail vein, 160 mg/kg (free base) orally once per day Mon/Wed/Fri from day 4, log-rank test significant", "value": "significant extension of the survival period"}, {"measurement": "proliferation of GFP+ cells in the peripheral blood (FIG. 2)", "setting": "[1]; day 10 after injection of leukemia cells, Mann-Whitney's U test significant versus control", "value": "proliferation of GFP+ cells was suppressed"}, {"measurement": "longest survival in medicine-administered group (FIG. 3)", "setting": "[2]", "value": "≥ 40", "unit": "days"}, {"measurement": "survival period of medicine-administered group (FIG. 3)", "setting": "[2]; control mice died in less than 20 days", "value": "≥ 20", "unit": "days"}, {"measurement": "proliferation of GFP+ cells in the peripheral blood (FIG. 4)", "setting": "[2]; day 19 after injection of leukemia cells", "value": "proliferation of GFP+ cells was suppressed"}, {"measurement": "survival period versus non-administered group, p53-deleted leukemia cells", "setting": "[2]; same manner as Test Example 1", "value": "extension of the survival period according to the present invention does not depend on the p53 gene"}]}, {"smiles": "Nc1ccn([C@@H]2O[C@H](CO)[C@@H](O)[C@@H]2O)c(=O)n1", "note": "[cytarabine]", "values": [{"measurement": "efficacy of existing chemotherapy in leukemia associated with MLL", "setting": "[3]", "value": "not effective"}]}, {"smiles": "COc1cccc2c1C(=O)c1c(O)c3c(c(O)c1C2=O)C[C@@](O)(C(=O)CO)C[C@@H]3O[C@H]1C[C@H](N)[C@H](O)[C@H](C)O1", "note": "[doxorubicin]", "values": [{"measurement": "efficacy of existing chemotherapy in leukemia associated with MLL", "setting": "[3]", "value": "not effective"}]}]}
